Test results from paper PMC4979471 (Cell Death Discovery, 2015).
Read-outs that look alike come from different tables or passages of the source.

How the values were obtained:
Test in all cases: Kinase selectivity, P33-radiolabeled assay
Assay type in all cases: biochemical
Settings in all cases: 10 μM ATP
STK32C/YANK3 = molecular target: T1, STK32C/YANK3 (Homo sapiens, UniProt Q86UX6)
T1 construct: purchased Reaction Biology Corp
Summary of the method: (§1)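 ATP at 10 μM; test article at 10 μM, single point, two replicates. Output is activity as % of DMSO.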

PDGFRb = molecular target: T2, PDGFRb (Homo sapiens, UniProt P09619)
T2 construct: purchased Reaction Biology Corp
T2 sequence (P09619 33-1106): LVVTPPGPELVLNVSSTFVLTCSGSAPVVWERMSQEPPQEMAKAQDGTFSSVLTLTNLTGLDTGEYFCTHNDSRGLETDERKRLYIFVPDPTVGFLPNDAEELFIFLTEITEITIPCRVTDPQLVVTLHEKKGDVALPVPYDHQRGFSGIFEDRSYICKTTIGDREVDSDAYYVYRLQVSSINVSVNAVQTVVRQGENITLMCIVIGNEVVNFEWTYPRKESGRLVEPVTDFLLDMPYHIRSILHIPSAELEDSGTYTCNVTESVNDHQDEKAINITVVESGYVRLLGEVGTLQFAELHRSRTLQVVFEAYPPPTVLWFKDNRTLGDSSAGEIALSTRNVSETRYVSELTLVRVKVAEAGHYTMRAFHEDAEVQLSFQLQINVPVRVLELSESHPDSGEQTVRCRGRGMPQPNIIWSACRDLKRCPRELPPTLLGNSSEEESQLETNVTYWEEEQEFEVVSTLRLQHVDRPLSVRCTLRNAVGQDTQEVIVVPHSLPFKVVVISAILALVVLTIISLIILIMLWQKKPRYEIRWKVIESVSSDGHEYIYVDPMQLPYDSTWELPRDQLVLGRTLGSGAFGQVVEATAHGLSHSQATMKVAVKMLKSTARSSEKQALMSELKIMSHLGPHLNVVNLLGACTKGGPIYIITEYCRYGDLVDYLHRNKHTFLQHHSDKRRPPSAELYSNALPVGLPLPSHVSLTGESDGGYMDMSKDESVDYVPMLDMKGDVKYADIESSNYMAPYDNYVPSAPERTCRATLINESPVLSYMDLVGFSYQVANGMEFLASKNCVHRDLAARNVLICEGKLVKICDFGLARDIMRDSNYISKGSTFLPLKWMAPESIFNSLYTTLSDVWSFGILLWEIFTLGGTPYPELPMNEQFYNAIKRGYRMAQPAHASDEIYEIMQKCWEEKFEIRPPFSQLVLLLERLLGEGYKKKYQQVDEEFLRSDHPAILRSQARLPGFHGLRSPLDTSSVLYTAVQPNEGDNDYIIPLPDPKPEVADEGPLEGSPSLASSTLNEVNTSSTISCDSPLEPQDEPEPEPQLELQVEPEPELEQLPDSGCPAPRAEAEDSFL
Summary of the method: as §1

SNARK/NUAK2 = molecular target: T3, SNARK/NUAK2 (Homo sapiens, UniProt Q9H093)
T3 construct: purchased Reaction Biology Corp
T3 sequence (Q9H093 1-628): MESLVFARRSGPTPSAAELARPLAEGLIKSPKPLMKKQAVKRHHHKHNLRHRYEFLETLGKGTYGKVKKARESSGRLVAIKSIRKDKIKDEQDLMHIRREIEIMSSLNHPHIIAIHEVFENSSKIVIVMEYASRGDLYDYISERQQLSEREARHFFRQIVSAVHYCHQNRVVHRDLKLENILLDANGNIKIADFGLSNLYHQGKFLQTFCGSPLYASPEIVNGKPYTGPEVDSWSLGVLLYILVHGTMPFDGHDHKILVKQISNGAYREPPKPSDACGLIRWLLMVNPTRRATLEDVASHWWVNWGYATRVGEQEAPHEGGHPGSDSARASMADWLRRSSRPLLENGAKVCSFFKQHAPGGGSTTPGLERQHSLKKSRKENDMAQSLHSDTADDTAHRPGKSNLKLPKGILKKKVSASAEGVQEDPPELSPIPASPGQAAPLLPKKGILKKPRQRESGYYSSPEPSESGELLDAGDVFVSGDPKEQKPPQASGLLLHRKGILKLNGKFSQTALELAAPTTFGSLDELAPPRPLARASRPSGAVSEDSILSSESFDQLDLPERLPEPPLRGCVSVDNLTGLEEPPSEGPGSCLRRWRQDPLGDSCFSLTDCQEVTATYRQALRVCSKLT
Summary of the method: as §1

STK32B/YANK2 = molecular target: T4, STK32B/YANK2 (Homo sapiens, UniProt Q9NY57)
T4 construct: purchased Reaction Biology Corp
T4 sequence (Q9NY57 whole entry): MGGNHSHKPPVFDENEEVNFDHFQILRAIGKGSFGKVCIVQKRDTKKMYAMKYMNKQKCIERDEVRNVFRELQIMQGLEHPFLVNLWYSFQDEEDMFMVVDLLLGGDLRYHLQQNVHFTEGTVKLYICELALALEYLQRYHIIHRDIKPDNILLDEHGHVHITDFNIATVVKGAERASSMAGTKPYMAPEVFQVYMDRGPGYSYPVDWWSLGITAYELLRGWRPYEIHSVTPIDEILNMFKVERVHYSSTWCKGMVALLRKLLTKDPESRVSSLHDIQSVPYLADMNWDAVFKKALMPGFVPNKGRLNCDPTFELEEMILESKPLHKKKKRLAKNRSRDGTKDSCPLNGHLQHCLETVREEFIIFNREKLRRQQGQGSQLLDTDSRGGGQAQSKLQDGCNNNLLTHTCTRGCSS
Summary of the method: as §1

FRK/PTK5 = molecular target: T5, FRK/PTK5 (Homo sapiens, UniProt P42685)
T5 construct: purchased Reaction Biology Corp
T5 sequence (P42685 whole entry): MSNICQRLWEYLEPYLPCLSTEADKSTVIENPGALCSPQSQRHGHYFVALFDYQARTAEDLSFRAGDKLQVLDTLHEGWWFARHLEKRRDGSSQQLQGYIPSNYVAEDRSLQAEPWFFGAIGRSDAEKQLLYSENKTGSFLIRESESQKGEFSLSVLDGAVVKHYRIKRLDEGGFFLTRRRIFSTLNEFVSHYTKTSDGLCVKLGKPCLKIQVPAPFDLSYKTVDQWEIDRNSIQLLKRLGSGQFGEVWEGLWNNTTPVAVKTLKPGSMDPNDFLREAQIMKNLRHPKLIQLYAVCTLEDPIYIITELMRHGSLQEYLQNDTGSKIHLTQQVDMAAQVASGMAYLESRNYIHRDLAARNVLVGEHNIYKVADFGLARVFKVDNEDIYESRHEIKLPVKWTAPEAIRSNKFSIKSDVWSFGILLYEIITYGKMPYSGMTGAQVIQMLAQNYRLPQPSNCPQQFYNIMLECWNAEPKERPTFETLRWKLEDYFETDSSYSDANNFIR
Summary of the method: as §1

CDK5/p35 = molecular target: T6, CDK5/p35 (Homo sapiens, UniProt Q00535)
T6 construct: purchased Reaction Biology Corp
T6 sequence (Q00535 whole entry): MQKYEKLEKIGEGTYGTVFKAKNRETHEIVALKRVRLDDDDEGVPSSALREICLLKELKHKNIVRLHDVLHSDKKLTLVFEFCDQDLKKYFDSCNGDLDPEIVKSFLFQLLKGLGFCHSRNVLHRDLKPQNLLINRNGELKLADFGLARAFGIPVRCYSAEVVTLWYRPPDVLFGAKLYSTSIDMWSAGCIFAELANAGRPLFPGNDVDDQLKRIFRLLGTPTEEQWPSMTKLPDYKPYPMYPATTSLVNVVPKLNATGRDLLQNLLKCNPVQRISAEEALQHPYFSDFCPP
T6 sequence (Q15078 whole entry partner): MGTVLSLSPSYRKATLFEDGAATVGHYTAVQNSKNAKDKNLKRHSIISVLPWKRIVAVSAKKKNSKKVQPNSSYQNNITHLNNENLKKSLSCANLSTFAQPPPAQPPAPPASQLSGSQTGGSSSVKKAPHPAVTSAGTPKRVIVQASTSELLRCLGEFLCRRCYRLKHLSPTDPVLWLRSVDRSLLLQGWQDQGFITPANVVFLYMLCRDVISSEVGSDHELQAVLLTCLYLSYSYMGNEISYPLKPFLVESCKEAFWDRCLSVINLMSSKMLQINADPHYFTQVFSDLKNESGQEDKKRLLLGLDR
Summary of the method: as §1

IKKe/IKBKE = molecular target: T7, IKKe/IKBKE (Homo sapiens, UniProt Q14164)
T7 construct: purchased Reaction Biology Corp
T7 sequence (Q14164 1-716): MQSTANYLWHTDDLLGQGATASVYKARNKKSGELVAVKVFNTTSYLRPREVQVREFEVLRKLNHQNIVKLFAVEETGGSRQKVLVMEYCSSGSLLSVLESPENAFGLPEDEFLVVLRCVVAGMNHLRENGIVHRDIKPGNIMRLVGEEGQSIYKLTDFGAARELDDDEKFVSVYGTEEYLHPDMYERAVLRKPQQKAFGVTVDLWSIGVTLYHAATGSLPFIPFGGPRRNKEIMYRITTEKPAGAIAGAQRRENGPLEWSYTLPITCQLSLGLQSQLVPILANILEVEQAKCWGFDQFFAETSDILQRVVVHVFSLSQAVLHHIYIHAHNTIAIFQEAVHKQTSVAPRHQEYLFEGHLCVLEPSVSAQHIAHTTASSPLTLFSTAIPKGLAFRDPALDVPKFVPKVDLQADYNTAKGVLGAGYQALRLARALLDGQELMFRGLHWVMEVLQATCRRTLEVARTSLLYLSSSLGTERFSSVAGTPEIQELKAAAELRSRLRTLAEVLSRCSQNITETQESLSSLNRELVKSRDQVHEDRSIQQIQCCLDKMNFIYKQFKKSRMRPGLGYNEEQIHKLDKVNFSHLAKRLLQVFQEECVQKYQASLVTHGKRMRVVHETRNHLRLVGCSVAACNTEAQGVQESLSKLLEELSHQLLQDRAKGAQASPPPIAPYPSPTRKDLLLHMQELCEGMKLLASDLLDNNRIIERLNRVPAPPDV
Summary of the method: as §1

[1] = read-out: % Enzyme Activity (relative to DMSO controls) AVG
[2] = read-out: % Enzyme Activity (relative to DMSO controls) Data 1
[3] = read-out: % Enzyme Activity (relative to DMSO controls) Data 2

T1 sequence (Q86UX6 whole entry): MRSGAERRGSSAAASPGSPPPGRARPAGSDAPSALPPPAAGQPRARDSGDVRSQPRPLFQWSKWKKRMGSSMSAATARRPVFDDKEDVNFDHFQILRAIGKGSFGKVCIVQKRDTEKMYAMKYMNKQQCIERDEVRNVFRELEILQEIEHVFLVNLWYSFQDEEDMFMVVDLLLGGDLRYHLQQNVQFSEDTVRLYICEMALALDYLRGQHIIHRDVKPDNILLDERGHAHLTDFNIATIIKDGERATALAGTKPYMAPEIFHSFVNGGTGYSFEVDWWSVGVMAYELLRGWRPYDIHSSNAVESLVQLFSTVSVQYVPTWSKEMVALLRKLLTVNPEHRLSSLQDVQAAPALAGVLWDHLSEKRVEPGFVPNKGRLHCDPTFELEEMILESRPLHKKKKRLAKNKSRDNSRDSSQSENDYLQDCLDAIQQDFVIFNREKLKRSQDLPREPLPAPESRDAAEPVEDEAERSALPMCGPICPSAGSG

Question: Which remaining activity at 10 µM (STK32C/YANK3; [1]) does the source give for `CC(C)(C)C(=O)N1N=CC[C@H]1c1ccccc1` [GSK′963] here?
Answer: 98.9%

Question: And the remaining activity at 10 µM (STK32C/YANK3; [2])?
Answer: 97.5%

Question: What about the remaining activity at 10 µM (STK32C/YANK3; [3]) of the same compound?
Answer: 100%

Question: What about the remaining activity at 10 µM (PDGFRb; [1]) of the same compound?
Answer: 104%

Question: What about the remaining activity at 10 µM (PDGFRb; [2]) of the same compound?
Answer: 101%

Question: And the remaining activity at 10 µM (PDGFRb; [3])?
Answer: 107%

Question: What about the remaining activity at 10 µM (SNARK/NUAK2; [1]) of the same compound?
Answer: 99.1%

Question: And the remaining activity at 10 µM (SNARK/NUAK2; [2])?
Answer: 99.2%

Question: And the remaining activity at 10 µM (SNARK/NUAK2; [3])?
Answer: 99%

Question: What about the remaining activity at 10 µM (STK32B/YANK2; [1]) of the same compound?
Answer: 98.5%

Question: What about the remaining activity at 10 µM (STK32B/YANK2; [2]) of the same compound?
Answer: 98.6%

Question: And the remaining activity at 10 µM (STK32B/YANK2; [3])?
Answer: 98.4%

Question: And the remaining activity at 10 µM (FRK/PTK5; [1])?
Answer: 86%

Question: And the remaining activity at 10 µM (FRK/PTK5; [2])?
Answer: 87.6%

Question: What about the remaining activity at 10 µM (FRK/PTK5; [3]) of the same compound?
Answer: 84.4%

Question: And the remaining activity at 10 µM (CDK5/p35; [1])?
Answer: 96.2%

Question: And the remaining activity at 10 µM (CDK5/p35; [2])?
Answer: 95.5%

Question: And the remaining activity at 10 µM (CDK5/p35; [3])?
Answer: 97%

Question: What about the remaining activity at 10 µM (IKKe/IKBKE; [1]) of the same compound?
Answer: 70%

Question: And the remaining activity at 10 µM (IKKe/IKBKE; [2])?
Answer: 68.1%

Question: And the remaining activity at 10 µM (IKKe/IKBKE; [3])?
Answer: 71.8%
